Entries after “also recorded” stand apart in the source; their conditions may differ.
Legend:
[1] = cited from earlier work; for plasma half-life: in vivo
[2] = test system: restless leg syndrome (RLS) patients; assay: Oral therapy of RLS patients with terguride (patient histories); type: in vivo, human
Source text: The invention is explained in more detail below based on examples in the form of patient histories.

[3] = test system: restless leg syndrome (RLS) patients; settings: prior art clinical studies, cited from earlier work; for therapeutic effectiveness in RLS: levodopa perorally in the evening, 100 to 600 mg
[4] = test system: sleeping pattern, REM phases; assay: Effect of oral terguride on sleeping pattern / sleep profile; type: in vivo, human; settings: 0.5 mg p.o. up to 50 mg
Experimental: A dosage of 0.5-2.5 mg is preferred. In the therapy of RLS, terguride in […] dosages apparently acts as a partial agonist, its acting especially on RLS symptoms as a complete agonist, but has little or no effect on the other intact dopaminergic control circuits that control vomiting, orthostasis and the sleep profile. Thus, there is no need to specially change the dosage with a view to side effects. At the same time, however, the desired effect begins very quickly, which is very useful if RLS symptoms occur in the evening, and leads to the patient being unable to fall asleep. Finally, if a longer duration of action is desirable, the dosage of 0.5, 1 mg or even higher can be increased without disturbing the sleep profile.

## C=CCN1C[C@H](C(=O)N(CCCN(C)C)C(=O)NCC)C[C@@H]2c3cccc4[nH]cc(c34)C[C@H]21 [cabergoline]
[1]
  plasma half-life: more than 40 hours

## [Mg+2] [magnesium]
[2]; Patient 3
  success of previous RLS treatments: only moderately successful

## NCC1(CC(=O)O)CCCCC1 [gabapentin]
[3]
  therapeutic effectiveness in RLS: especially effective in the control of painful RLS symptoms

## CCCN(CCC)CCc1cccc2c1CC(=O)N2 [Ropinirole]
[3]
  tolerance / side effects in RLS therapy: fewer side effects
  therapeutic effectiveness in RLS: less effective

## CCCN1C[C@H](CSC)C[C@@H]2c3cccc4[nH]cc(c34)C[C@H]21 [pergolide]
[2]; Patient 2, later switched to pergolide
  course of RLS after switch from terguride: no deterioration
[1]
  plasma half-life: more than 27 hours

## CC(C)C[C@H]1C(=O)N2CCC[C@H]2[C@]2(O)O[C@](NC(=O)[C@@H]3C=C4c5cccc6[nH]c(Br)c(c56)C[C@H]4N(C)C3)(C(C)C)C(=O)N12 [bromocriptine]
[1]; peroral
  share of perorally administered dose reaching systemic blood circulation: 6%

## N[C@@H](Cc1ccc(O)c(O)c1)C(=O)O [Levodopa]
[3]
  tolerance / side effects in RLS therapy: generally well tolerated
  therapeutic effectiveness in RLS: brief effectiveness

## OC(CCN1CCCCC1)(c1ccccc1)C1CC2C=CC1C2 (stereo not shown) [biperiden]
[2]; Patient 2, previous treatment
  effect of previous treatment on RLS: little effect

## CCN(CC)C(=O)N[C@H]1C[C@@H]2c3cccc4[nH]cc(c34)C[C@H]2N(C)C1 [terguride]
[2]; Patient 1, daily dosage 1.5 mg orally
  Epworth scale: 12
[2]; Patient 1, daily dosage 1.5 mg orally, long-term therapy
  side effects: no side effects
[2]; Patient 2, familial RLS, 1 mg orally
  improvement of RLS: very distinct improvement
[2]; Patient 2, 1 mg / 0.5 mg orally
  side effects: no side effects
[2]; Patient 2, further therapy with 0.5 mg
  effectiveness in RLS: partial effectiveness
[2]; Patient 2, withdrawal of terguride
  course of RLS in withdrawal trial: immediate deterioration
[2]; Patient 3 (person two), 1 mg orally for 3 months
  success of RLS treatment: very good success
[2]; Patient 3, 1 mg orally for 3 months
  side effects: no side effects
[2]; compared with first administration
  effectiveness on renewed use after stopping when RLS symptoms recurred: same effectiveness
[2]; general statement
  tolerance in treatment of RLS: very good tolerance
[2]; oral, general statement
  effectiveness in oral therapy of RLS: exceptionally effective; also recorded: great effectiveness
[4]
  adverse effect on REM phases: no adverse effect
  adverse effects on the sleeping pattern: no adverse effects whatsoever

## CCCN[C@H]1CCc2nc(N)sc2C1 [Pramipexol]
[3]
  therapeutic effectiveness in RLS: almost complete suppression of symptoms

## NC(=O)N1c2ccccc2C=Cc2ccccc21 [carbamazepine]
[2]; Patient 3
  success of previous RLS treatments: only moderately successful
[3]
  therapeutic effectiveness in RLS: especially effective in the control of painful RLS symptoms

## Cc1ccc(-c2nc3ccc(C)cn3c2CC(=O)N(C)C)cc1 [zolpidem]
[2]; Patient 3
  success of previous RLS treatments: only moderately successful

From US20110124600A1, “Use of Dopamine partial agonists for treament of the restless leg syndrome and corresponding pharmaceutical preparation” (priority 2002, published 2011)
